The text below walks through data of patent US20100144888A1, “PESTICIDAL METHODS AND COMPOSITIONS FOR MODULATING GABA RECEPTORS” (ECOSMART TECHNOLOGIES, INC., priority 2008, published 2010).

For one assay, the target named is Mouse GABAa receptor. Description: [3H]-TBOB binding assay, mouse GABAa receptor. Particulars: means±S.D., n=3, FIG. 1, read-out: IC50, inhibition of [3H]-TBOB binding. As to the method:
(§1) 100 μl membrane was incubated for 70 minutes at room temperature with 4 nM [^3H]-TBOB, different amounts of candidate inhibitor and buffer B. The total assay buffer volume was 500 μl. After incubation, samples were filtered by glass fiber filter papers and washed with 5 ml ice-cold buffer B 3 times. Radioactivity was measured by liquid scintillation counter. Specific binding was calculated as the difference between the total ^3H bound and nonspecific ^3H bound with 100 μM picrotoxin.

Assay [1] deals with insect GABA receptor (American cockroach CNS membrane microsacs). Description: GABA-activated 36Cl- uptake assay in membrane microsacs. The class given is biochemical, Periplaneta americana. The note with it: for modulation of Cl- uptake: American cockroach membrane microsacs, 1 μM GABA, FIGS. 8-15; for type of modulation of the insect GABA receptor: conclusion from 36Cl- uptake results. Here is the method:
Cockroach CNS Membrane Microsacs Preparation: Thoracic and abdominal ganglia were removed from 30 American cockroaches and homogenized in 8.0 ml ice-cold buffer of the following composition (in millimoles per liter): NaBr, 145; KBr, 5.0; MgSO4, 1.0; Ca(NO3)2, 1.0; D-glucose, 10.0; N-2-hydroxyethylpiperazine-N′-2-ethanesulphonic acid (HEPES), 10.0 (adjusted to pH 7.5). The homogenate was centrifuged in 1.0 ml aliquots at 10,000×g for 20 min, and the pellets were re-suspended in buffer, re-centrifuged and finally re-suspended in buffer for assaying GABA-activated ^36Cl— uptake.
Cockroach GABA-activated ^36Cl— Uptake: Aliquots (200 μl) of this microsac preparation were incubated at 30° C. for 3 min after which 150 μl of a solution of ^36Cl— (0.2 μCi ml-l; specific activity 580 μCi mmol^−1) containing 1 μM GABA was added. Candidate monoterpenoids were incubated with the tissue sample for 3 min before addition of the solution containing ^36Cl— and GABA. To stop the influx of 36CL—, 2.0 m1 of ice cold buffer was added (after 10 s) and the solution was rapidly filtered over a glass-fiber filter (Whatman GF/C) followed by a 10-ml wash with ice-cold buffer. Filters, which then contained the microsacs, are placed into scintillation vials, and the scintillation cocktail was added. The vials were counted in the liquid scintillation counter, and the amount of ^36Cl— taken up into the microsacs was measured and calculated on the molar basis.

The target of another assay is T1, House Fly GABA receptor (Musca domestica, UniProt Q75NA5).
T1 sequence (Q75NA5 30-576): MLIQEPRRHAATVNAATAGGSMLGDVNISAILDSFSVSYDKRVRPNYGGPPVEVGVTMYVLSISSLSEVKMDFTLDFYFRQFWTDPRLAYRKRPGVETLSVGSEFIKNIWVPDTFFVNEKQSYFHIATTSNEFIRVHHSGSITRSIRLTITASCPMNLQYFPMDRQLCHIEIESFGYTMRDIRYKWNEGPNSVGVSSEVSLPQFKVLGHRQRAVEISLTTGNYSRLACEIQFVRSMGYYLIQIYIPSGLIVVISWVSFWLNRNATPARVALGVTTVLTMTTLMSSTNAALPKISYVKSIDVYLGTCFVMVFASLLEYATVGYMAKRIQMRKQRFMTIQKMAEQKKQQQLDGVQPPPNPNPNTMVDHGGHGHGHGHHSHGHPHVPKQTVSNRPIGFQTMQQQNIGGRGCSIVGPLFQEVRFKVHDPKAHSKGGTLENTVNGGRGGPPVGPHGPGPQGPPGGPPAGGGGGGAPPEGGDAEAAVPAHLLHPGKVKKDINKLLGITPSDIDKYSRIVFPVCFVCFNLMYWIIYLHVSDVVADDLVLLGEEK
Description: [3H]-TBOB binding assay, house fly GABA receptor. The note with it: for modulation of the house fly GABA receptor: based on [3H]-TBOB-house fly GABA receptor binding assay, FIGS. 1-7; for effect on [3H]-TBOB binding activity: house fly GABA receptor, 4 nM [3H]-TBOB. Here is the method:
[^3H]-TBOB Assay. In this study, five monoterpenoids (Pulegone, Thymol, Alpha-terpineol, Linalool and Carvacrol) were investigated to determine their modulation effects on [^3H]TBOB (t-butylbicycloorthobenzoate) binding to housefly GABA (Gamma-aminobutyric acid) receptors.
House fly heads (200) were homogenized in 10 mM tris-HCL buffer (pH 7.5) containing 0.25M sucrose (buffer A) with a glass homogenizer. The homogenate was centrifuged at 1,000×g for 5 minutes. The supernatant was filtered by four layers cheesecloth and centrifuged at 25,000×g for 30 minutes. The supernatant was discarded, and the pellet was homogenized and resuspended in buffer A for 30 minutes. The suspension was centrifuged at 25,000×g for 30 minutes. The final pellet was suspended in 10 mM phosphate buffer (pH 7.5) containing 300 mM NaCL (buffer B) and used directly for the assays.
as §1

In the case of `ClC1=C(Cl)[C@]2(Cl)[C@@H]3[C@@H]4C[C@@H]([C@H]5O[C@@H]45)[C@@H]3[C@@]1(Cl)C2(Cl)Cl` [Dieldrin], the IC50 at Mouse GABAa receptor amounted to 3.78 ± 0.45 µM.
In the case of `CC(C)=C1CC[C@@H](C)CC1=O` [Pulegone], in assay [1], the “modulation of Cl- uptake” value is on record as “modulate Cl— uptake”. For the same compound, on House Fly GABA receptor, the “modulation of the house fly GABA receptor” value is given as “modulated the house fly GABA receptor” and the “effect on [3H]-TBOB binding activity” value is listed as “potentiated the binding”.
With `CC1=CCC(C(C)(C)O)CC1` (stereo not drawn) [alpha-terpineol], at House Fly GABA receptor, the “modulation of the house fly GABA receptor” value is reported as “modulated the house fly GABA receptor” and the “effect on [3H]-TBOB binding activity” value is recorded as “lesser effects”.
Take `Cc1ccc(C(C)C)cc1O` [carvacrol]: in assay [1], the “modulation of Cl- uptake” value is given as “modulate Cl— uptake” and the “type of modulation of the insect GABA receptor” value is reported as “positive modulators”. At House Fly GABA receptor, the “modulation of the house fly GABA receptor” value is reported as “modulated the house fly GABA receptor” and the “effect on [3H]-TBOB binding activity” value was “potentiated the binding”.
For `C=CC(C)(O)CCC=C(C)C` (stereo not shown) [linalool], on House Fly GABA receptor, the “modulation of the house fly GABA receptor” value is recorded as “modulated the house fly GABA receptor” and the “effect on [3H]-TBOB binding activity” value was “potentiated the binding”.
For the compound `Cc1ccc(C(C)C)c(O)c1` [thymol], in assay [1], the “modulation of Cl- uptake” value is “modulate Cl— uptake” and the “type of modulation of the insect GABA receptor” value is “positive modulators”. Further, on House Fly GABA receptor, the “modulation of the house fly GABA receptor” value is given as “modulated the house fly GABA receptor” and the “effect on [3H]-TBOB binding activity” value is recorded as “potentiated the binding”.

One may read the IC50 as the concentration that inhibits the measured activity by half.
